These results are taken from patent US7605182B2, “Compounds that selectively bind to membranes of apoptotic cells” (Aposense Ltd., priority 2003, dated 2009).

The assay deals with apoptotic Jurkat cells. In words: Selective binding of NST-892 to apoptotic Jurkat cells; flow-cytometric (FACS) analysis. Conditions: 500 μM compound, 20 minutes. It is filed as cell-based, human. The method, then:
Cultured Jurkat cells (human […] T cell leukemia cells) were grown in suspension in RPMI medium (Beit-Haemek, Israel), supplemented with 10% of fetal calf serum (FCS), 4 mM of L-glutamine, 1 mM of sodium pyruvate, 1 mM CaCl2 and antibiotics (100 units/ml penicilin; 100 μg/ml streptomycin and 12.5 units/ml of nystatin) Prior to induction of apoptosis, medium was replaced with HBS buffer (10 mM HEPES; 140 mM NaCl, 1 mM CaCl). Apoptosis was then triggered by treatment with anti-Fas Ab (0.1 μg/ml; 2.5 hrs). Both control cells and apoptotic cells were then incubated for 20 minutes with 500 μM of NST-892 dissolved in 0.1 m NaPpi pH=7.4. Subsequently, cells were co-stained with propidium iodide (PI), a marker of membrane disintegration during late phases of cell death, and the selective binding of the NST-892 compounds to control and apoptotic cells was determined by flow cytometric (FACS) analysis using Becton-Dickinson cell sorter and CellQuest software (excitation was at 356 nm and emission was measured at 530 nm).

As for `CN(C)c1cccc2c(S(=O)(=O)NC(C(=O)O)c3cccc4c(C(N)C(=O)O)cccc34)cccc12` (centres unmarked) [NST-892, Mono Dansyl Naphthalene Diglycine], the “percent of identified early apoptotic events within the population (cells binding NST-892, excluding PI)” value is, setting by setting: (apoptotic Jurkat cells (anti-Fas Ab 0.1 μg/ml; 2.5 hrs)) 68.9%; (non-treated control Jurkat cells) 3.3%.
